Entries after “also recorded” stand apart in the source; their conditions may differ.
How the values were obtained:
hTRPA1 [1] = target: T1, hTRPA1 (Homo sapiens, UniProt O75762); test: Evaluation of hTRPA1 action using Ca2+ imaging (Fura-2/AM) in cell lines stably expressing hTRPA1; assay type: cell-based; settings: for calcium release in hTRPA1 stably expressing cell line: 50 μM, FIG. 2; for activity inhibition by ruthenium red (RR): treatment with cationic channel blocker RR
T1 construct: The hTRPA1-expressing gene (coding region) was cloned; expressed in transfected cells
Experimental: (§1) The hTRPA1-expressing gene (coding region) was cloned according to the manufacturer's protocol for the pcDNA5/FRT Complete System (Invitrogen). In order to verify whether the hTRPA1 gene was accurately inserted into the vector, sequencing was carried out using the ABI 130 or 310 DNA generatic analyzer (Applied Biosystems), and the constructed vector and Pog44 were transduced into Flin-in 293 cells using Lipofectamine 2000 (Invitrogen). After 24 hours, the cells were optionally treated with 100 μg/ml of hygromycin-B (Invitrogen), following by further culturing for 2-3 weeks. Then, only antibiotic-resistant cells were collected, and used for measuring cellular responses of hTRPA1, followed by repeated culturing. The cells were cultured in Dulbecco's modified Eagle's medium (DMEM) supplemented with 10% fetal bovine serum.
The Ca^2+ imaging was conducted to measure hTRPA1 activation. Fura-2/AM (Molecular Probes, USA) was used as a marker for measuring the change in the intracellular calcium concentration. At 20-26 hours before the analysis, cell lines stably expressing hTRPA1 were dispensed in a 96-well plate. The cells were cultured in a solution added with Fura-2/AM (5 μM) at 27° C. for 30 minutes. The cells were washed with an assay buffer (140 mM NaCl, 10 mM HEPES, 2 mM CaCl2.2H2O, 2 mM EGTA, 1 mM MgCl2.6H2O, 10 mM glucose, and 5 mM KCl), added with 100 μL of the assay buffer, and left at room temperature for 15 minutes. The Fura-2/AM-loaded cells were placed on a microscope, and the fluorescence absorbance was measured between 340 nm and 380 nm. The images were recorded at 3-sec intervals, and the change in the intracellular calcium concentration was analyzed using MetalFluor software (Molecular Devices, Sunnyvale, Calif., USA).

hTRPA1 [2] = target: T1, hTRPA1; test: Measurement of intracellular Ca2+ concentration using cell-based analysis (FlexStation, Fluo-4-AM)
Experimental: as §1
The intercellular Ca^2+ concentration was measured by using FlexStation™ (Molecular Devices, Sunnyvale, Calif., USA). Cells were dispensed at 24 hours before the analysis, and treated with 5 μM Fluo-4-AM (Molecular Probes, Eugene, Oreg., USA) as a marker for measuring the change in the intracellular calcium concentration, followed by reaction at 27° C. for 30 minutes. After that, the cells were washed with an assay buffer (140 mM NaCl, 10 mM HEPES, 2 mM CaCl22H2O, 2 mM EGTA, 1 mM MgCl26H2o, 10 mM glucose, and 5 mM KCl), added with 100 μL of the assay buffer, and left at room temperature for 15 minutes. Then, each of extracts and compositions was treated and used to measure fluorescence absorbance at 486 nm (F486) and 516 nm (F516). The change in intercellular calcium concentration was represented as A relative fluorescent unit (RFU), and was analyzed by using the Softmax software (Molecular devices, USA).

NCI-H716 cells = test: GLP-1 secretion effect in NCI-H716 cells (GLP-1 active ELISA); assay type: cell-based, human; settings: 1 hour
From the text: Glucagon-like peptide-1 (GLP-1), which is the hormone secreted from the gut, is involved in an anti-diabetic action by amplifying glucose-stimulated insulin secretion and suppressing the beta-cell death. GLP-1 is also involved in an anti-obesity action by decreasing the rate of gastric emptying and suppressing the appetite. Therefore, a GLP-1 secreting material can be expected to have anti-diabetic and anti-obesity effects.
The human-derived cell line NCI-H716 cells were purchased from the American Type Culture Collection (ATCC, Manassas, Va.). This cell line corresponds to suspension cells isolated from the large-intestinal Adenocarcinoma of an adult, and has been known as a cell line that mainly secrets GLP-1. For the maintenance of proliferation and culture of the cell line, the cells were cultured in RPMI 1640 medium supplemented with 10% fetal bovine serum (FBS), 2 mM L-glutamine, 100 IU/ml penicillin, and 100 μg/ml streptomycin, and for the adherence and differentiation of cells, the Matrigel matrix (Becton Dickinson and Co., Bedford, Mass.) was coated on plates and the cells were cultured in high-glucose DMEM supplemented with 10% FBS, 2 mm L-glutamine, 100 IU/ml penicillin, and 100 μg/ml streptomycin.
The NCI-H716 cell line was cultured at 2×10^5 cells/mL in a 96-well culture plate coated with Matrigel for 3 days. On the day of the experiment, the cells were washed with 1× phosphated buffered saline (PBS). For the control group, Krebs-Ringer bicarbonate buffer (KRB, 128.8 mmol/l NaCl, 4.8 mmol/l KCl, 1.2 mmol/l KH2PO4, 1.2 mmol/l MgSO4, 2.5 mmol/l CaCl2, 5 mmol/l NaHCO3, and 10 mmol/l HEPES, 0.2% BSA, pH 7.4) was used. For the analysis, the samples of different concentrations were added thereto, followed by incubation at 37° C. for 1 hour. After the incubation, the supernatant was taken (100 μL) for GLP-1 analysis, and analyzed by using the GLP-1 active ELISA kit (EGLP-35K, Millipore) according to the manufacturer's manual. The concentration of GLP-1 was calculated based on the supplied GLP-1 standard material (pmol).

[3] = Sensory test for pungent flavor; assay type: in vivo; settings: 1 μM solution
Experimental: The sensory test was conducted for the pungent flavor due to coniferyl alcohol. A solution of 1 μM coniferyl alcohol was used, and the sensitivity of the pungent taste was marked in a 15-point scale (n=6).

[4] = Lacrimation test (solution sprayed onto eyes of participants); assay type: in vivo; settings: 1 μM solution sprayed onto eyes
Experimental: The lacrimation test was conducted on the coniferyl alcohol. A solution of 1 μM coniferyl alcohol was used, and experiment participants were asked to write down their feeling when the solution was sprayed onto their eyes.

T1 sequence (O75762 whole entry): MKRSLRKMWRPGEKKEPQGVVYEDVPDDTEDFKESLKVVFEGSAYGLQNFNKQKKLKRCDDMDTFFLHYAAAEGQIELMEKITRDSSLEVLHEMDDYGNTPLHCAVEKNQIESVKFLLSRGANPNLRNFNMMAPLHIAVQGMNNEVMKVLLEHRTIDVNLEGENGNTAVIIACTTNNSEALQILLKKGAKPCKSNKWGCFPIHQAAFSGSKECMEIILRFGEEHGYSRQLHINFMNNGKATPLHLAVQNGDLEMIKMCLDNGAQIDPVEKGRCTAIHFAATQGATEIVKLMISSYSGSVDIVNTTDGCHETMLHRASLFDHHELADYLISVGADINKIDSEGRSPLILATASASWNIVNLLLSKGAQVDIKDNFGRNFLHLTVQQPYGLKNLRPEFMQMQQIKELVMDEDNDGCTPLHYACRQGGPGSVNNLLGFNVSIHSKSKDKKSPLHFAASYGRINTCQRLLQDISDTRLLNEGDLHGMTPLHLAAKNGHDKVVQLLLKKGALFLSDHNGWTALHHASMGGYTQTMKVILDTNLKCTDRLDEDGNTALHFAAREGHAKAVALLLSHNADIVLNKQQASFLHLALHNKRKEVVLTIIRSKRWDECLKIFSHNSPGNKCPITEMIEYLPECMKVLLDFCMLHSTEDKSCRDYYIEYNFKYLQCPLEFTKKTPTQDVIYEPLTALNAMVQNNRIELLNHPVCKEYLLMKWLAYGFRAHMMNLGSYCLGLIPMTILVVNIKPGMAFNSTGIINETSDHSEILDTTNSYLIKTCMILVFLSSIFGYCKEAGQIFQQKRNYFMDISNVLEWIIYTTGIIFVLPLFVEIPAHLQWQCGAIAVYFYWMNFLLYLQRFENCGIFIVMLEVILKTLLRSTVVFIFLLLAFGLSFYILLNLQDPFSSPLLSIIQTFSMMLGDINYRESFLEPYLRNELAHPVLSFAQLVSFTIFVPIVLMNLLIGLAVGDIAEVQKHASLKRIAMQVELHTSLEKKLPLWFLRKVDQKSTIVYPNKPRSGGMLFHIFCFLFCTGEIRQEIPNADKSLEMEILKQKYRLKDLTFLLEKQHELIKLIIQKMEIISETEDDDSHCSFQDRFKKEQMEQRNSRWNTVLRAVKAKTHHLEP

EC50 (hTRPA1 [2]; FIG. 29) [µM] | Ca2+ response inhibited by cationic channel blocker RR (hTRPA1 [2]; RR 30 μM) | Structure (SMILES) | calcium response / hTRPA1 action in hTRPA1-expressed cells (Ca2+ imaging) (hTRPA1 [1]) | calcium release in hTRPA1 stably expressing cell line (hTRPA1 [1]) | activity inhibition by ruthenium red (RR) (hTRPA1 [1]) | Ca2+ response inhibited by TRPA1 antagonist HC-030031 (hTRPA1 [2]; HC-030031 100 μM) | GLP-1 secretion as compared with the untreated control group (NCI-H716 cells; 3 μM) [times] | GLP-1 secretion as compared with the untreated control group (NCI-H716 cells; 10 μM or higher) [times] | taste description in sensory test [3] | intensity of pungent tastes (spicy, tingle, and tangy tastes) ([3]; 15-point scale, n=6) | ocular tears or irritation due to spray [4] | activity inhibition by HC-030031 (hTRPA1 [1]; treatment with TRPA1 antagonist HC-030031) | GLP-1 secretion as compared with the untreated control group (NCI-H716 cells; 500 μM) [times]
– | – | O=CC=Cc1ccccc1 [CALD, cinnamaldehyde] | all cells were activated | calcium was released | most activities were inhibited | – | – | – | – | – | – | – | –
654 | inhibited | COc1cc(/C=C/CO)ccc1O [coniferyl alcohol, Coniferyl alcohol] | specifically acted on hTRPA1; also recorded: increased the intercellular Ca^2+ influx in a time-dependent manner | – | completely blocked | inhibited; also recorded: significantly reduced | 3 | ≥ 4 | the remaining taste was stronger than the first taste and the tongue burns or has a pain | 11.83±1.6 | ocular pain (tingling, stinging, and dizziness) was observed | – | –
– | – | O=C(/C=C/c1ccc(O)c(O)c1)O[C@@H]1C[C@](O)(C(=O)O)C[C@@H](O)[C@H]1O [chlorogenic acid] | no effects | – | – | – | – | – | – | – | – | – | –
– | – | C=CCN=C=S [AITC, allyl isothiocyanate] | all cells were activated | calcium was released | most activities were inhibited | – | – | – | – | – | – | not inhibited | 3.9

Source: US9301989B2, “hTRPA1-activating composition and use thereof” (KOREA FOOD RESEARCH INSTITUTE, priority 2011, dated 2016)
